Values quoted from earlier work in publication PMC11206245 (Pharmaceuticals, 2024).
Read-outs that look alike come from different tables or passages of the source.

What was measured:
dogs = system: dogs; design: method as in PMID 15986212; conditions: cited from earlier work
[1] = design: method as in PMID 22124669, PMID 20618337; conditions: humans; cited from earlier work

| SMILES | Toxicity outcome (dogs; 16 mg/m^2 orally) | Toxicity outcome (dogs; daily intravenous dose of 8 mg/m^2) | Toxicity outcome (dogs; intravenous daily doses of 16 mg/m^2) | half-life [1] [h] |
| --- | --- | --- | --- | --- |
| CO[C@H]1/C=C\C=C(/C)C(=O)NC2=CC(=O)C(NCCN(C)C)=C(C[C@@H](C)C[C@H](OC)[C@H](O)[C@@H](C)/C=C(\C)[C@@H]1OC(N)=O)C2=O [17-DMAG, 17-dimethylaminoethylamino-17-demetoxigeldanamycin] | Toxicity was also observed | Toxicity was also observed | fatal | – |
| CO[C@H]1/C=C\C=C(/C)C(=O)NC2=CC(=O)C(N)=C(C[C@@H](C)C[C@H](OC)[C@H](O)[C@@H](C)/C=C(\C)[C@@H]1OC(N)=O)C2=O [17-AG, 17-amino-geldanamycin] | – | – | – | 6.2 to 7.6 |
